In paper PMC13252604, “First Generation Proteolysis Targeting Chimeras (PROTACs) for the Treatment of Progeria” (Advanced Science, 2026):

Test system: HGADFN167 Lmna^G608G/G608G fibroblasts
Experiment: Oxygen consumption rates (OCR) measurement
Format: cell-based, human
Conditions: HGADFN167, 5 µM, 20 days
Source text: FIGURE 6 (A) Representative cropped immunoblots and progerin quantification in human Lmna^G608G/G608G fibroblasts. MW, molecular weight (in kDa) markers. […] (B) PROTAC 2 increases cell proliferation (upper panels) and decreases the number of misshapen nuclei (lower panels). White arrows highlight selected misshapen nuclei. (C) PROTAC 2 decreases senescence‐associated β‐galactosidase (SA‐βgal) activity, interleukin (IL) 6, p16 and p21 senescent markers. Bar graphs show mean±sem of 2 (SA‐βgal and p21) or 3 (IL‐6 and p16) independent experiments performed in triplicate. (D) PROTAC 2 decreases phosphorylated histone 2AX (pH2AX) and increases trimethylated histone 3 (H3K9Me3) levels. (E) PROTAC 2 increases the oxygen consumption rate (OCR), ATP production and the number of healthy mitochondria in human progeroid cells. Bar graphs show mean±sem of 2 independent experiments performed in duplicate. […] Data were analysed using one‐way ANOVA followed by Dunnett's post–hoc test vs vehicle (panel A) or vs G608G cells (panels B‐E). ^*, p < 0.05; ^**, p < 0.01; ^***, p < 0.001; ^****, p < 0.0001. […]
Mitochondria were evaluated for the integrity of the membrane, matrix and cristae, and were classified as mitochondria with normal morphology (black arrows) or damaged mitochondria (red arrows, with alterations in the membrane, presence of inclusions in the matrix and concentric cristae or “onion-like” mitochondria). […]
ferrocyanide, 0.6 mL 5 M NaCl, 0.2 mL 0.2 M MgCl2, (all from Sigma Aldrich) and 6.2 mL of deionized water in a total volume of 20 mL] in the dark in a humidified incubator at 37 °C for 24 h without CO2 supply. Then, an equal volume of the supernatant of each well was transferred to a new 96-well plate for fluorescence measurement. The resultant production of fluorescein was measured using a FluoStar Optima instrument (BMG Labtech) with an excitation of 485 nm and emission at 535 nm. […]
Total RNA was extracted by RNAeasy Mini Kit (Qiagen) according to the manufacturer instructions and subsequently quantified using the NanoPhotometer N60 (Implen). […]

CC1(C)Oc2cc3oc(=O)ccc3cc2C[C@@H]1OC(=O)CCCCCNc1cccc2c1C(=O)N(C1CCC(=O)NC1=O)C2=O (stereo partly drawn) [compound 2]
ATP production: enhances | basal respiration: enhances | oxygen consumption rate (OCR): enhances OCR in human progeroid cells
